How the values were obtained:
Assay type in all cases: in vivo
[1] = system: Veronica persica; assay: Test Example 4: herbicidal effect by soil treatment (symbol R)
In short: (§1)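 Seeds were sown in sterilized diluvial soil, covered with about 1.5 cm of soil, and the soil surface was sprayed with a water-diluted emulsion of the compound at a predetermined rate. Plants grew in a greenhouse at 25° C. to 30° C.; effects were scored visually 3 weeks after application.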

[2] = system: Setaria viridis; assay: Test Example 4: herbicidal effect by soil treatment (symbol G)
In short: as §1

[3] = system: Abutilon theophrasti; assay: Test Example 5: herbicidal effect by foliage application, plastic box (symbol M); conditions: 320 g/ha, 3 weeks after application
In short: (§2)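 Greenhouse foliar test: seedlings at 14 days, grown 25° C. to 30° C. in sterilized diluvial soil; compound applied as an aqueous dilution of an emulsion; response read 3 weeks after spraying.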

[4] = system: Galium spurium; assay: Test Example 5: herbicidal effect by foliage application, plastic box (symbol Q); conditions: 320 g/ha, 3 weeks after application
In short: as §2

[5] = system: Lolium multiflorum Lam.; assay: Test Example 5: herbicidal effect by foliage application, plastic box (symbol K); conditions: 320 g/ha, 3 weeks after application
In short: as §2

[6] = system: Setaria viridis; assay: Test Example 5: herbicidal effect by foliage application, plastic box (symbol G); conditions: 320 g/ha, 3 weeks after application
In short: as §2

[7] = system: Digitaria ciliaris; assay: Test Example 5: herbicidal effect by foliage application, plastic box (symbol F); conditions: 320 g/ha, 3 weeks after application
In short: as §2

[8] = system: Echinochloa oryzacola Vasing.; assay: Test Example 1: herbicidal activity, application before weed generation in submerged conditions (symbol A); conditions: application herbicide amount 320 g/ha
In short: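 Weed control was rated three weeks after treatment on a 0–5 scale, from 5% or lower up to 90% or more. Pre-emergence water-surface application of diluted emulsion at a predetermined rate was made on the day of sowing, in flooded (4 cm water) pots containing rice seedlings, kept at 25–30 °C under glass.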

[9] = system: Echinochloa crus-galli var. crus-galli; assay: Test Example 3: herbicidal effect by foliage application, Wagner pot (symbol H); conditions: application herbicide amount 320 g/ha
In short: (§3)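 Foliar spray of a water-diluted emulsion at a predetermined herbicide amount, applied to 14-day-old plants. Seedlings were raised in flooded alluvial soil (0.1–0.5 cm water) at 25–30 °C in a greenhouse. Injury was rated after 3 weeks against fixed criteria.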

[10] = system: Alopecurus myosuroides; assay: Test Example 4: herbicidal effect by soil treatment (symbol J)
In short: as §1

[11] = system: rice plant; assay: Test Example 5: effect on crop by foliage application, plastic box (symbol b); conditions: 320 g/ha, 3 weeks after application
In short: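 Greenhouse test at 25° C. to 30° C. Seeds of crops and weeds were spot-sown in boxes of sterilized diluvial soil under roughly 1.5 cm soil cover, then grown for foliage treatment.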

[12] = system: Chenopodium album; assay: Test Example 5: herbicidal effect by foliage application, plastic box (symbol O); conditions: 320 g/ha, 3 weeks after application
In short: as §2

[13] = system: rapeseed; assay: Test Example 4: effect on crop by soil treatment (symbol g); conditions: for g: rapeseed, effect on crop grade: application herbicide amount 320 g/ha
In short: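 Diluvial soil (sterilized) in boxes; seeds placed spot-wise alongside weed species; ~1.5 cm covering soil. Greenhouse, 25–30° C.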

[14] = system: Avena fatua; assay: Test Example 4: herbicidal effect by soil treatment (symbol I)
In short: as §1

[15] = system: Leptochloa chinensis; assay: Test Example 3: herbicidal effect by foliage application, Wagner pot (symbol D); conditions: application herbicide amount 320 g/ha
In short: as §3

[16] = system: Stellaria media; assay: Test Example 5: herbicidal effect by foliage application, plastic box (symbol P); conditions: 320 g/ha, 3 weeks after application
In short: as §2

[17] = system: Apera spica-venti; assay: Test Example 5: herbicidal effect by foliage application, plastic box (symbol L); conditions: 320 g/ha, 3 weeks after application
In short: as §2

[18] = system: Digitaria ciliaris; assay: Test Example 4: herbicidal effect by soil treatment (symbol F)
In short: as §1

[19] = system: Amaranthus retroflexus; assay: Test Example 4: herbicidal effect by soil treatment (symbol N); conditions: application herbicide amount 320 g/ha
In short: as §1

[20] = application herbicide amount 320 g/ha

Row | Structure (SMILES) | Herbicidal effect grade, A: Echinochloa oryzacola Vasing. [8] | herbicidal effect on H (Echinochloa crus-galli var. crus-galli), grade 0-5 [9] | herbicidal effect on D (Leptochloa chinensis), grade 0-5 [15] | R: Veronica persica, herbicidal effect grade [1, 20] | G: Setaria viridis, herbicidal effect grade [2, 20] | M: Abutilon theophrasti, herbicidal effect grade [3] | K: Lolium multiflorum Lam., herbicidal effect grade [5] | G: Setaria viridis, herbicidal effect grade [6] | F: Digitaria ciliaris, herbicidal effect grade [7] | J: Alopecurus myosuroides, herbicidal effect grade [10, 20] | b: directly sowed rice plant, effect on crop grade [11] | O: Chenopodium album, herbicidal effect grade [12] | I: Avena fatua, herbicidal effect grade [14, 20] | N: Amaranthus retroflexus, herbicidal effect grade [19] | L: Apera spica-venti, herbicidal effect grade [17] | F: Digitaria ciliaris, herbicidal effect grade [18, 20] | g: rapeseed, effect on crop grade [13] | P: Stellaria media, herbicidal effect grade [16] | also measured
1 | CON=C(C)CC1CC(OC(=O)N2CCCC2)=C(c2c(C)cc(C)cc2C)C1=O (centres unmarked) [1-150] | 5 (Herbicidal ratio of 90% or more (almost completely withered)) | 5 (Herbicidal ratio of 90% or more (almost completely withered)) | 4 (Herbicidal ratio of 70% or higher and lower than 90%) | – | – | – | – | – | – | – | – | – | – | – | – | – | – | – | R: Veronica persica, herbicidal effect grade ([1]; 320 g/ha): 0 (Herbicidal ratio of 5% or lower (almost no effect)); G: Setaria viridis, herbicidal effect grade ([2]; 320 g/ha): 0 (Herbicidal ratio of 5% or lower (almost no effect)); M: Abutilon theophrasti, herbicidal effect (criteria 0-5) [3]: 3 (Herbicidal ratio of 40% or higher and lower than 70%); Q: Galium spurium, herbicidal effect (criteria 0-5) [4]: 0 (Herbicidal ratio of 5% or lower (almost no effect)); K: Lolium multiflorum Lam., herbicidal effect (criteria 0-5) [5]: 5 (Herbicidal ratio of 90% or more (almost completely withered)); G: Setaria viridis, herbicidal effect (criteria 0-5) [6]: 4 (Herbicidal ratio of 70% or higher and lower than 90%); F: Digitaria ciliaris, herbicidal effect (criteria 0-5) [7]: 5 (Herbicidal ratio of 90% or more (almost completely withered)); J: Alopecurus myosuroides, herbicidal effect grade ([10]; 320 g/ha): 5 (Herbicidal ratio of 90% or more (almost completely withered)); b: directly sowed rice plant, effect on crop (criteria 0-5) [11]: 5 (Herbicidal ratio of 90% or more (almost completely withered)); O: Chenopodium album, herbicidal effect (criteria 0-5) [12]: 0 (Herbicidal ratio of 5% or lower (almost no effect)); g: rapeseed, effect grade on crop ([13]; 320 g/ha): 0 (Herbicidal ratio of 5% or lower (almost no effect)); I: Avena fatua, herbicidal effect grade ([14]; 320 g/ha): 2 (Herbicidal ratio of 20% or higher and lower than 40%); P: Stellaria media, herbicidal effect (criteria 0-5) [16]: 0 (Herbicidal ratio of 5% or lower (almost no effect)); L: Apera spica-venti, herbicidal effect (criteria 0-5) [17]: 5 (Herbicidal ratio of 90% or more (almost completely withered)); F: Digitaria ciliaris, herbicidal effect grade ([18]; 320 g/ha): 5 (Herbicidal ratio of 90% or more (almost completely withered))
2 | CCC(=O)CCC1CC(OC)=C(c2c(C)cc(C)cc2C)C1=O (centres unmarked) [5-002] | 0 (Herbicidal ratio of 5% or lower (almost no effect)) | 0 (Herbicidal ratio of 5% or lower (almost no effect)) | 0 (Herbicidal ratio of 5% or lower (almost no effect)) | 0 (Herbicidal ratio of 5% or lower (almost no effect)) | 0 (Herbicidal ratio of 5% or lower (almost no effect)) | 0 (Herbicidal ratio of 5% or lower (almost no effect)) | 0 (Herbicidal ratio of 5% or lower (almost no effect)) | 0 (Herbicidal ratio of 5% or lower (almost no effect)) | 0 (Herbicidal ratio of 5% or lower (almost no effect)) | 0 (Herbicidal ratio of 5% or lower (almost no effect)) | 0 (Herbicidal ratio of 5% or lower (almost no effect)) | 0 (Herbicidal ratio of 5% or lower (almost no effect)) | 0 (Herbicidal ratio of 5% or lower (almost no effect)) | 0 (Herbicidal ratio of 5% or lower (almost no effect)) | 0 (Herbicidal ratio of 5% or lower (almost no effect)) | 0 (Herbicidal ratio of 5% or lower (almost no effect)) | – | – | Q: Galium spurium, herbicidal effect grade [4]: 0 (Herbicidal ratio of 5% or lower (almost no effect))
3 | CCC(C)C(=O)CC1CC(O)=C(c2c(C)cc(C)cc2C)C1=O (centres unmarked) [2-024] | 2 (Herbicidal ratio of 20% or higher and lower than 40%) | 5 (Herbicidal ratio of 90% or more (almost completely withered)) | 3 (Herbicidal ratio of 40% or higher and lower than 70%) | 0 (Herbicidal ratio of 5% or lower (almost no effect)) | 5 (Herbicidal ratio of 90% or more (almost completely withered)) | 0 (Herbicidal ratio of 5% or lower (almost no effect)) | 5 (Herbicidal ratio of 90% or more (almost completely withered)) | 5 (Herbicidal ratio of 90% or more (almost completely withered)) | 4 (Herbicidal ratio of 70% or higher and lower than 90%) | 0 (Herbicidal ratio of 5% or lower (almost no effect)) | 5 (Herbicidal ratio of 90% or more (almost completely withered)) | 0 (Herbicidal ratio of 5% or lower (almost no effect)) | 0 (Herbicidal ratio of 5% or lower (almost no effect)) | 0 (Herbicidal ratio of 5% or lower (almost no effect)) | 2 (Herbicidal ratio of 20% or higher and lower than 40%) | 5 (Herbicidal ratio of 90% or more (almost completely withered)) | 0 (Herbicidal ratio of 5% or lower (almost no effect)) | 0 (Herbicidal ratio of 5% or lower (almost no effect)) | –
4 | CON=C(C)CC1CC(O)=C(c2c(C)cc(-c3ccc(C)cc3)cc2C)C1=O (mixture of isomers) [6-018] | 5 (Herbicidal ratio of 90% or more (almost completely withered)) | 5 (Herbicidal ratio of 90% or more (almost completely withered)) | 5 (Herbicidal ratio of 90% or more (almost completely withered)) | 0 (Herbicidal ratio of 5% or lower (almost no effect)) | 5 (Herbicidal ratio of 90% or more (almost completely withered)) | 0 (Herbicidal ratio of 5% or lower (almost no effect)) | 5 (Herbicidal ratio of 90% or more (almost completely withered)) | 5 (Herbicidal ratio of 90% or more (almost completely withered)) | 5 (Herbicidal ratio of 90% or more (almost completely withered)) | 5 (Herbicidal ratio of 90% or more (almost completely withered)) | 5 (Herbicidal ratio of 90% or more (almost completely withered)) | 3 (Herbicidal ratio of 40% or higher and lower than 70%) | 0 (Herbicidal ratio of 5% or lower (almost no effect)) | 0 (Herbicidal ratio of 5% or lower (almost no effect)) | 5 (Herbicidal ratio of 90% or more (almost completely withered)) | 5 (Herbicidal ratio of 90% or more (almost completely withered)) | 0 (Herbicidal ratio of 5% or lower (almost no effect)) | 3 (Herbicidal ratio of 40% or higher and lower than 70%) | –

Reference: patent US11000033B2, “Ketone or oxime compound, and herbicide” (NISSAN CHEMICAL CORPORATION, priority 2014, dated 2021)
